Test results taken from patent US5700682A, “Mechanism based screen for retinoid X receptor agonists and antagonists” (American Cyanamid Company, priority 1995, dated 1997).

Molecular target: T1, RXRα (Homo sapiens, UniProt P19793)
T1 construct: reporter YRpA: two apoAI site A copies-CYC1-lacZ
T1 sequence (P19793 1-462): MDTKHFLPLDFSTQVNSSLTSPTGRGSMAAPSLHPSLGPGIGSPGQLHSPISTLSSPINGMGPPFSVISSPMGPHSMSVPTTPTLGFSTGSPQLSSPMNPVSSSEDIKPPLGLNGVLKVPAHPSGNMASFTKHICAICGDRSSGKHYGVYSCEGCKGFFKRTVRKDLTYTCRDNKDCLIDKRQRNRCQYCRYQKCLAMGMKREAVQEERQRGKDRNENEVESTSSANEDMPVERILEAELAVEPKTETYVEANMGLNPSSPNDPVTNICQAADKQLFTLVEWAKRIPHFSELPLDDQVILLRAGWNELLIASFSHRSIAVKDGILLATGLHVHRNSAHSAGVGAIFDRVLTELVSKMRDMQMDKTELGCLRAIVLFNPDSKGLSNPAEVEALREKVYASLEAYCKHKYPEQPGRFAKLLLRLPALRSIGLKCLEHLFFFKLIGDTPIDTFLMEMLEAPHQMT
Assay: Plate assay (X-GAL, blue halo) as a screen to detect RXRα agonists
Assay type: cell-based
Conditions: discs containing hormone on agar plate with X-GAL; FIG. 7
Excerpt: Yeast cells containing the RXRα expression plasmid and the reporter construct are inoculated in Yeast media containing the chromogenic substrate, X-GAL® (a registered trademark of 5-bromo-4-chloro-3-indolyl-β-D-galactopyranoside, commercially available from Gibco BRL, Bethesda, Md.).
To identify nontoxic ligands of RXRα, the present invention includes a novel screen for detecting compounds having retinoid X receptor agonist or antagonist activity by the following steps: (1) Providing a yeast strain which expresses the […] and activates the reporter plasmid containing apoAI gene site A or a mutated variant thereof; (2) incubating the compound in suitable media and a colorless chromogenic substrate; and (3) examining the media for development of color. FIG. 7 illustrates the screen as a plate assay which detects RXRα agonists. Yeast cells containing the RXRα expression plasmid and the reporter construct are inoculated in yeast media containing the chromogenic substrate, X-GAL® (a registered trademark of 5-bromo-4-chloro-3-indolyl-β-D-galactopyranoside, commercially available from Gibco BRL, Bethesda, Md.). Other well-known chromogenic substrates may substitute for X-GAL®. Then, discs containing different test compounds may be placed on top of the agar plate. Induction of the reporter enzyme by the ligands of RXRα is reflected by the formation of a color.

Row | SMILES | Induction of the reporter enzyme as reflected by formation of the blue halo
1 | CC(C)(O)CC[C@@H](O)[C@](C)(O)[C@H]1CC[C@@]2(O)C3=CC(=O)[C@@H]4C[C@@H](O)[C@@H](O)C[C@]4(C)[C@H]3CC[C@]12C [20-hydroxyecdysone] | observed for 9-cis retinoic acid and all-trans-retinoic acids only
2 | C[C@]12CCC(=O)C=C1CC[C@@H]1[C@@H]2C(=O)C[C@@]2(C)[C@H]1CC[C@]2(O)C(=O)CO [cortisone] | observed for 9-cis retinoic acid and all-trans-retinoic acids only
3 | CC(=O)[C@H]1CC[C@H]2[C@@H]3CCC4=CC(=O)CC[C@]4(C)[C@H]3CC[C@]12C [progesterone] | observed for 9-cis retinoic acid and all-trans-retinoic acids only
4 | C[C@]12CC[C@H]3[C@@H](CCC4=CC(=O)CC[C@@]43C)[C@@H]1CC[C@@H]2O [testosterone] | observed for 9-cis retinoic acid and all-trans-retinoic acids only

System: RXRα binding to the apoAI gene site A
Assay: not given
Conditions: reticulocyte lysates; cited from earlier work

Row | SMILES | Binding of in vitro translated RXRα to apoAI gene site A on supplementing lysates with ligand
5 | CC1=C(/C=C/C(C)=C\C=C\C(C)=C\C(=O)O)C(C)(C)CCC1 [9-cis-RA, 9-cis-retinoic acid] | does not bind to the apoAI gene site A unless these lysates are supplemented
6 | CC1=C(/C=C/C(C)=C/C=C/C(C)=C/C(=O)O)C(C)(C)CCC1 [all-trans-RA, all-trans-retinoic acid] | to the lesser extent
